The target of one test is MNK1 (Homo sapiens, UniProt Q9BUB5). As to the kind of experiment: In vitro MNK kinase assay (Caliper LabChip mobility shift). The test is classed as biochemical.
The target in the next test is MNK2 (Homo sapiens (Human), UniProt Q9HBH9). Described as above. It is filed as biochemical.
Where [1] appears, read: enzymatic, 1.2 mM ATP, read-out: IC50 Mnk1.
Setting [2] is: enzymatic, 250 μM ATP, read-out: IC50 Mnk2.

Where two headings read alike, the source gives them in different places. A value given as a limit tells only on which side of the number the result lay.

MNK2, sequence (Q9HBH9 84-388): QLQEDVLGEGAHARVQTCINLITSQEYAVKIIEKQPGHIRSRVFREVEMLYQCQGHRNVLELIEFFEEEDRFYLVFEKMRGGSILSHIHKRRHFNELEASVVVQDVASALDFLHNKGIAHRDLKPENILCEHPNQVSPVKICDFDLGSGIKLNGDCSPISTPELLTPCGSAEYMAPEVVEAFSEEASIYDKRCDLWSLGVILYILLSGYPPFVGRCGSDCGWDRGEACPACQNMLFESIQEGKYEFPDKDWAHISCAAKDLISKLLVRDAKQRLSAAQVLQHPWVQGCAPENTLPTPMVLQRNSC

With `N#Cc1ccc(-c2cnc3ccc(-c4ccc(C(=O)N5CCN(C(=O)c6ccccc6)CC5)cc4)cn23)cc1` [Example 126, 4-(6-(4-(4-benzoylpiperazine-1-carbonyl)phenyl)imidazo[1,2-a]pyridin-3-yl)benzonitrile], the IC50 at MNK1 (setting [1]) and at MNK2 (setting [2]) was under 100 nM each time.
For the molecule `N#Cc1ccc(-c2cnc3ccc(-c4ccc(C(=O)N5CCN(Cc6ccc(C(N)=O)cc6)CC5)cc4)cn23)cc1` [Example 129, 4-((4-(4-(3-(4-cyanophenyl)imidazo[1,2-a]pyridin-6-yl)benzoyl)piperazin-1-yl)methyl)benzamide], the IC50 (as a rule, the concentration at which inhibition is half-maximal) at MNK1 (setting [1]) is under 1000 nM; at MNK2 (setting [2]), under 100 nM.
The matching figures for `CN1CCN(C(=O)c2ccc(-c3ccc4ncc(-c5ccc(C#N)cc5)n4c3)cc2)CC1=O` [Example 130, 4-(6-(4-(4-methyl-3-oxopiperazine-1-carbonyl)phenyl)imidazo[1,2-a]pyridin-3-yl)benzonitrile]: under 100 nM and under 100 nM.
On the same counts, the results for `N#Cc1ccc(-c2cnc3ccc(-c4ccc(C(=O)N5CCC(N6CCOCC6)CC5)cc4)cn23)cc1` [Example 134, 4-(6-(4-(4-morpholinopiperidine-1-carbonyl)phenyl)imidazo[1,2-a]pyridin-3-yl)benzonitrile] are under 100 nM and under 100 nM.
The matching figures for `Cc1nnc(C2(C)CCN(C(=O)c3ccc(-c4ccc5ncc(-c6ccc(C#N)cc6)n5c4)cc3)CC2)o1` [Example 135, 4-(6-(4-(4-methyl-4-(5-methyl-1,3,4-oxadiazol-2-yl)piperidine-1-carbonyl)phenyl)imidazo[1,2-a]pyridin-3-yl)benzonitrile]: under 100 nM and under 100 nM.
Consider `Cc1cc2ncc(-c3ccc(C#N)cc3)n2cc1-c1ccc(C(=O)N2CCC(C)(N)CC2)cc1` [Example 137, 4-(6-(4-(4-amino-4-methylpiperidine-1-carbonyl)phenyl)-7-methylimidazo[1,2-a]pyridin-3-yl)benzonitrile], for which the IC50 on MNK1 (setting [1]) was under 1000 nM; at MNK2 (setting [2]) it was under 100 nM.
The matching figures for `Cc1cc2ncc(-c3ccc(C#N)cc3)n2cc1-c1ccc(C(=O)N2CCN(C)CC2)cc1` [Example 138, 4-(7-methyl-6-(4-(4-methylpiperazine-1-carbonyl)phenyl)imidazo[1,2-a]pyridin-3-yl)benzonitrile]: under 1000 nM and under 1000 nM.
The matching figures for `CN1CCN(C(=O)c2ccc(-c3ccc4ncc(-c5ccc(C#N)cc5)n4c3)c(F)c2)CC1` [Example 140, 4-(6-(2-fluoro-4-(4-methylpiperazine-1-carbonyl)phenyl)imidazo[1,2-a]pyridin-3-yl)benzonitrile]: under 100 nM and under 100 nM.
On the same counts, the results for `CN1CCN(C(=O)c2ccc(-c3ccc4ncc(-c5ccc(C#N)cc5)n4c3)cc2Cl)CC1` [Example 141, 4-(6-(3-chloro-4-(4-methylpiperazine-1-carbonyl)phenyl)imidazo[1,2-a]pyridin-3-yl)benzonitrile] are under 100 nM and under 100 nM.
On to `CN1CCN(C(=O)c2ccc(-c3ccc4ncc(-c5ccc(C#N)cc5)n4c3)cc2F)CC1` [Example 142, 4-(6-(3-fluoro-4-(4-methylpiperazine-1-carbonyl)phenyl)imidazo[1,2-a]pyridin-3-yl)benzonitrile], for which the IC50 at MNK1 (setting [1]) was under 1000 nM; on MNK2 (setting [2]) it was under 100 nM.
The matching figures for `CN1CCN(C(=O)c2ccc(-c3ccc4ncc(-c5ccc(C#N)cc5)n4c3)cc2C(F)(F)F)CC1` [Example 145, 4-(6-(4-(4-methylpiperazine-1-carbonyl)-3-(trifluoromethyl)phenyl)imidazo[1,2-a]pyridin-3-yl)benzonitrile]: under 100 nM and under 1000 nM.
On the same counts, the results for `CN1CCN(C(=O)c2ccc(-c3ccc4ncc(-c5ccc(C#N)cc5)n4c3)cc2N)CC1` [Example 146, 4-(6-(3-amino-4-(4-methylpiperazine-1-carbonyl)phenyl)imidazo[1,2-a]pyridin-3-yl)benzonitrile] are under 100 nM and under 100 nM.
On the same counts, the results for `CN1CCN(C(=O)c2ccc(-c3ccc4ncc(-c5ccc(C#N)cc5)n4c3)cc2N(C)C)CC1` [Example 147, 4-(6-(3-(dimethylamino)-4-(4-methylpiperazine-1-carbonyl)phenyl)imidazo[1,2-a]pyridin-3-yl)benzonitrile] are under 100 nM and under 100 nM.
Take `CC(=O)Nc1cc(-c2ccc3ncc(-c4ccc(C#N)cc4)n3c2)ccc1C(=O)N1CCN(C)CC1` [Example 149, N-(5-(3-(4-cyanophenyl)imidazo[1,2-a]pyridin-6-yl)-2-(4-methylpiperazine-1-carbonyl)phenyl)acetamide]: the IC50 at MNK1 (setting [1]) and on MNK2 (setting [2]) was under 1000 nM throughout.
For the molecule `CNc1cc(-c2ccc3ncc(-c4ccc(C#N)cc4)n3c2)ccc1C(=O)N1CCN(C)CC1` [Example 150, 4-(6-(3-(methylamino)-4-(4-methylpiperazine-1-carbonyl)phenyl)imidazo[1,2-a]pyridin-3-yl)benzonitrile], the concentration for half-maximal inhibition (IC50) on MNK1 (setting [1]) and at MNK2 (setting [2]) was under 100 nM throughout.
`CNc1cc(-c2ccc3ncc(-c4ccc(C#N)cc4)n3c2)ccc1C(=O)N1CCOCC1` [Example 151, 4-(6-(3-(methylamino)-4-(morpholine-4-carbonyl)phenyl)imidazo[1,2-a]pyridin-3-yl)benzonitrile]: the IC50 was under 1000 nM on MNK1 (setting [1]) and under 100 nM at MNK2 (setting [2]).
On the same counts, the results for `CN1CCN(C(=O)c2ccc(-c3ccc4ncc(-c5ccc(C#N)cc5)n4c3)c(Cl)c2)CC1` [Example 153] are under 1000 nM and under 1000 nM.
On the same counts, the results for `Cc1cc(-c2ccc3ncc(-c4ccc(C#N)cc4)n3c2)ccc1C(=O)N1CCOCC1` [Example 156] are under 1000 nM and under 1000 nM.
The matching figures for `CN1CCN(C(=O)c2ccc(-c3ccc4ncc(-c5ccc(C#N)cc5)n4c3)cc2OC(F)(F)F)CC1` [Example 157]: under 1000 nM and under 1000 nM.
Consider `COc1cc(-c2ccc3ncc(-c4ccc(C#N)cc4)n3c2)ccc1C(=O)N1CCOCC1` [Example 158], for which the IC50 at MNK1 (setting [1]) was under 1000 nM; on MNK2 (setting [2]), under 100 nM.
The matching figures for `N#Cc1ccc(-c2cnc3ccc(-c4ccc(C(=O)N5CCNCC5)c(O)c4)cn23)cc1` [Example 159, 4-(6-(3-hydroxy-4-(piperazine-1-carbonyl)phenyl)imidazo[1,2-a]pyridin-3-yl)benzonitrile]: under 100 nM and under 100 nM.
On to `N#Cc1ccc(-c2cnc3ccc(-c4ccc(C(=O)N5CCOCC5)c(N5CCOCC5)c4)cn23)cc1` [Example 160, 4-(6-[3-(morpholin-4-yl)-4-(morpholin-4-ylcarbonyl)phenyl]imidazo[1,2-a]pyridin-3-yl)benzonitrile], for which the 50% inhibitory concentration (IC50) at MNK1 (setting [1]) and on MNK2 (setting [2]) was under 100 nM throughout.
As for `N#Cc1ccc(-c2cnc3ccc(-c4ccc(C(=O)N5CCOCC5)c(F)c4)cn23)cc1` [Example 162, 4-(6-(3-fluoro-4-(morpholine-4-carbonyl)phenyl)imidazo[1,2-a]pyridin-3-yl)benzonitrile], the IC50 on MNK1 (setting [1]) and at MNK2 (setting [2]) was under 1000 nM each time.
`CC1(N2CCOCC2)CCN(C(=O)c2ccc(-c3ccc4ncc(-c5ccc(C#N)cc5)n4c3)cc2)CC1` [Example 163, 4-(6-(4-(4-methyl-4-morpholinopiperidine-1-carbonyl)phenyl)imidazo[1,2-a]pyridin-3-yl)benzonitrile]: the IC50 on MNK1 (setting [1]) and at MNK2 (setting [2]) was under 100 nM throughout.
Regarding `CN1CCN(C2(C)CCN(C(=O)c3ccc(-c4ccc5ncc(-c6ccc(C#N)cc6)n5c4)cc3)CC2)CC1` [Example 164, 4-(6-(4-(4-methyl-4-(4-methylpiperazin-1-yl)piperidine-1-carbonyl)phenyl)imidazo[1,2-a]pyridin-3-0)benzonitrile], the IC50 on MNK1 (setting [1]) and at MNK2 (setting [2]) was under 100 nM each time.
With `N#Cc1ccc(-c2cnc3ccc(-c4ccc(C(=O)N5CCNCC5)cc4)cn23)cc1` [Example 165, 4-(6-(4-(piperazine-1-carbonyl)phenyl)imidazo[1,2-a]pyridin-3-yl)benzonitrile], the IC50 at MNK1 (setting [1]) and on MNK2 (setting [2]) was under 100 nM throughout.
As for `CC(=O)Nc1cc(-c2ccc3ncc(-c4ccc(C#N)cc4)n3c2)ccc1C(=O)N1CCOCC1` [Example 166, N-(5-(3-(4-cyanophenyl)imidazo[1,2-a]pyridin-6-yl)-2-(morpholine-4-carbonyl)phenyl)acetamide], the IC50 at MNK1 (setting [1]) and on MNK2 (setting [2]) was under 100 nM in each case.
With `N#Cc1ccc(-c2cnc3ccc(-c4ccc(C(=O)N5CCOCC5)c(O)c4)cn23)cc1` [Example 167, 4-(6-(3-hydroxy-4-(morpholine-4-carbonyl)phenyl)imidazo[1,2-a]pyridin-3-yl)benzonitrile], the IC50 on MNK1 (setting [1]) and at MNK2 (setting [2]) was under 100 nM each time.
With `CNC1CCN(C(=O)c2ccc(-c3ccc4ncc(-c5ccc(C#N)cc5)n4c3)cc2NC(C)=O)CC1` [Example 169, N-(5-(3-(4-cyanophenyl)imidazo[1,2-a]pyridin-6-yl)-2-(4-(methylamino)piperidine-1-carbonyl)phenyl)acetamide], the IC50 at MNK1 and on MNK2 was under 100 nM throughout.
In the case of `CC(=O)Nc1cc(-c2ccc3ncc(-c4ccc(C#N)cc4)n3c2)ccc1C(=O)N1CCNCC1` [Example 170, N-(5-(3-(4-cyanophenyl)imidazo[1,2-a]pyridin-6-yl)-2-(piperazine-1-carbonyl)phenyl)acetamide], the IC50 on MNK1 (setting [1]) and at MNK2 (setting [2]) was under 100 nM in each case.
Consider `COC1(C)CCN(C(=O)c2ccc(-c3ccc4ncc(-c5ccc(C#N)cc5)n4c3)cc2)CC1` [Example 172, 4-(6-(4-(4-methoxy-4-methylpiperidine-1-carbonyl)phenyl)imidazo[1,2-a]pyridin-3-yl)benzonitrile], for which the IC50 at MNK1 (setting [1]) and at MNK2 (setting [2]) was under 100 nM each time.
Consider `CC1(N)CCN(C(=O)c2ccc(-c3ccc4ncc(-c5ccc(Cl)cc5)n4c3)cc2)CC1` [Example 173, (4-amino-4-methylpiperidin-1-yl)(4-(3-(4-chlorophenyl)imidazo[1,2-a]pyridin-6-yl)phenyl)methanone], for which the IC50 at MNK1 (setting [1]) and at MNK2 (setting [2]) was under 100 nM throughout.

These data come from patent US9908886B2 (Agency for Science, Technology and Research, priority 2012, dated 2018).
